Experimental data as given in patent publication US6030960A, “Method of treating hepatitis virus infections” (priority 1998, dated 2000).
Where “and” joins values, the source holds several entries; their conditions need not be identical. Identical values can stand only once. Like-named read-outs stand apart in the source and are kept apart here.

Assays:
Type in all cases: cell-based
[1] = tested on: Hepatitis B virus; experiment: Effect of alkyl lipids on HBV replication in HBV persistently infected human HEP G2 cells (Table 6); details: 10 μM
How it was run: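 Persistently HBV-infected HepG2 cells exposed to compound for nine days at 37 °C, intracellular HBV DNA analysed 24 h after day nine. Episomal 3.2-3.8 Kb genomes and replication intermediates normalized to integrated HBV DNA; virion DNA detection cut-off 0.1 pg DNA/ml culture medium.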

[2] = tested on: Hepatitis B virus; experiment: CP-51 against HBV-induced antigen syntheses in HEP-G2 cells persistently infected with HBV (Table 3); details: for activity at 10 µM: Hepatitis B virus, HepG2, 216 h
Experimental: (§1) HEP-G2 cells persistently infected with HBV were treated daily with fresh D-MEM containing 20% FBS and 10 μM compound. After 9 days incubation and treatment, the overlay medium was harvested to assay the quantity of Hepatitis B virus s antigen (HBsAg) and HBeAg by EIA (Abbott Laboratories). The overlay medium was diluted to levels of antigen in the linear range of the assay. Standard curves using dilutions of positive HBsAg and HBeAg controls were included in each assay. Virion DNA was assayed using the method set forth in Korba and Gerin, Antiviral Res., 19, 5,5-70 (1992), incorporated by reference herein. HBV DNA was extracted from the overlay medium containing virus particles and analyzed by a slot-blot hybridization technique using ^32 P-labelled 3.2 Kb Eco R1 HBV DNA fragment by comparisons to HBV standards present on nitrocellulose filters using an AMBIS beta scanner. EC90 values (90% effective concentration, i.e., drug concentration which induces a 90% decrease in the levels of HBV DNA replication intermediates in treated versus control cells) were calculated by linear regression analysis. The relative levels of HBsAg, HBeAg and virion DNA were calulated as a percentage of the average levels obtained from the untreated controls.
In contrast, CP-51 inhibited HBeAg and HBcAg syntheses by 76 and 68%, respectively.

[3] = Cytotoxicity of alkyl lipids, neutral red dye uptake (Table 1); details: human, hep-g2 cells
How it was run: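 HepG2 cells carrying tandem HBV genomes, with a G418-resistance plasmid, were given four serial compound concentrations in triplicate in RPMI-1640 for nine days at 37° C, with periodic medium replacement. Viability was measured by 0.01% neutral red uptake (A510) and expressed as percent of untreated control wells ±SD.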

[4] = tested on: Hepatitis B virus; experiment: Effect on synthesis of antigen markers in persistently infected human HEP G2 cell cultures (Table 7); details: nine days; for activity at 10 µM: Hepatitis B virus, HepG2, 216 h
How it was run: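 Persistently infected HepG2 cells treated with compound for nine days at 37° C. Culture medium then harvested: HBsAg and HBeAg quantified by EIA, virion DNA by hybridisation-based DNA measurement. Sensitivity cut-off 0.1 pg DNA/ml medium.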

[5] = tested on: Hepatitis B virus; experiment: Effect of alkyl lipid on HBV induction of antigen markers, DNA and RNA in persistently infected human HEP-G2 cell cultures (Table 8); details: Hepatitis B virus, HepG2, 216 h
Experimental: Further analyses were carried out with compound CP-51. Again, the cells were treated for nine days at 37° C. The overlay medium was harvested to measure levels of HBsAg, HBeAg, HBcAg, virion DNA, RI DNA and RNA levels. HBsAg and HBeAg were assayed by EIA (Abbott Laboratories). HBcAg was assayed by a solid phase EIA. HBV RNA was analyzed by Northern blot hybridization using a ^32 P-labelled 3.2 Kb genomic probe. Intracellular HBV RNA and RI HBV DNA was quantitated using a AMBIS beta scanner.

[6] = tested on: Hepatitis B virus; experiment: Effects of CP-51 on HBV-induced DNA and RNA synthesis (Table 4); details: for mrna remaining at 10 µM / activity at 10 µM: Hepatitis B virus, HepG2, 216 h
Experimental: as §1
Experiments were performed to determine the effects of CP-51 on HBV induced DNA and RNA syntheses. HEP-G2 cells persistently infected with HBV were treated daily with fresh D-MEM containing 20% FBS and 10 μM compound. After 9 days incubation and treatment the cells and overlay medium were harvested separately to assay the quantity of nucleic acids. Details of the methodology of the assays are given in Section B above. Extracellular virion DNA in untreated cells ranged from 50 to 150 pg/ml in the overlay medium. Intracellular HBV DNA replication intermediates (RI) in untreated cells ranged from 50 to 100 pg/μg cell DNA. Hybridization analysis results in about 1 pg intracellular HBV DNA/μg cellular DNA to 2-3 genomic copies per cell and 1.0 pg of extracellular HBV DNA/ml overlay medium to […] viral particles/ml. HBV RNA was analyzed by Northern blot hybridization analysis using a ^32 P-labeled 3.2 Kb gel-purified cloned genomic probe. Quantitive analysis of intracellular HBV DNA anc 14BV RNA was performed using an AMBIS beta scanner.

[7] = read-out: Relative Level of Total RNA
[8] = read-out: Relative Level of Virion DNA

Nc1ccn([C@H]2CC[C@@H](CO)O2)c(=O)n1 [2',3'-dideoxycytidine, 2', 3'-dideoxycytidine, reference compound]
HBV Virion DNA ([1]; Day 0): 67 pg/ml Culture Medium and 64 pg/ml Culture Medium and 58 pg/ml Culture Medium and 59 pg/ml Culture Medium | HBV Virion DNA ([1]; Day 3): 49 pg/ml Culture Medium and 55 pg/ml Culture Medium and 50 pg/ml Culture Medium and 58 pg/ml Culture Medium | HBV Virion DNA ([1]; Day 6): 20 pg/ml Culture Medium and 18 pg/ml Culture Medium and 17 pg/ml Culture Medium and 15 pg/ml Culture Medium | Intracellular HBV DNA, RI (replication intermediates) ([1]; nine days): 8 pg/μg Cell DNA and 7 pg/μg Cell DNA and 9 pg/μg Cell DNA | inhibitory activity against HBV-induced antigen syntheses ([2]; 10 μM, in words): no inhibitory activity | activity at 10 µM ([2]; read-out: Relative Levels of HBcAg): 102% | activity at 10 µM ([2]; read-out: Relative Levels of HBeAg): 95% | activity at 10 µM ([2]; read-out: Relative Levels of HBsAg): 96% | viability at 216 h, 3 µM [3]: 100 ± 1% | viability at 216 h, 10 µM [3]: 102 ± 1% | viability at 216 h, 30 µM [3]: 99 ± 2% | viability at 216 h, 100 µM [3]: 35 ± 2% | Relative Level of HBeAg ([4]; 10 μM, 12960 min): 115 % of Untreated Control and 98 % of Untreated Control | Relative Level of HBsAg ([4]; 10 μM, 12960 min): 112 % of Untreated Control and 102 % of Untreated Control | Relative Level of Virion DNA ([4]; 10 μM, 12960 min): 2 % of Untreated Control | activity at 10 µM ([4]; read-out: Relative Level of HBeAg, 10 μM): 101% | activity at 10 µM ([4]; read-out: Relative Level of HBsAg, 10 μM): 100% | activity at 10 µM ([4]; read-out: Relative Level of Virion DNA, 10 μM): 2% | activity at 10 µM ([5]; read-out: Relative Level of HBcAg): 102% | activity at 10 µM ([5]; read-out: Relative Level of HBeAg): 95% | activity at 10 µM ([5]; read-out: Relative Level of HBsAg): 96% | activity at 10 µM ([5]; read-out: Relative Level of Intracellular HBV-DNA): 6% | activity at 10 µM ([5]; read-out: Relative Level of RI DNA): 46% | activity at 10 µM [5, 7]: 92% | activity at 10 µM [5, 8]: 2% | effect on HBV-induced DNA and RNA syntheses ([6]; 10 μM, in words): inhibited HBV-induced DNA synthesis but not RNA syntheses | mrna remaining at 10 µM ([6]; read-out: Relative Level of 2.1 Kb RNA): 105% | activity at 10 µM ([6]; read-out: Relative Level of 3.2 Kb DNA): 46% | mrna remaining at 10 µM ([6]; read-out: Relative Level of 3.6 Kb RNA): 92% | activity at 10 µM ([6]; read-out: Relative Level of HBV RI): 6% | mrna remaining at 10 µM [6, 7]: 92% | activity at 10 µM [6, 8]: 2%
